Experiments:
Experiment in all cases: microbe, parasite or virus in culture
Type in all cases: cell-based
[1] = test system: Septoria tritici; conditions: Zymoseptoria tritici, 168 h
[2] = test system: Phytophthora infestans; conditions: 168 h, read-out: Fungal growth at 31 ppm (%) PHYTIN
[3] = test system: Fusarium culmorum; conditions: 168 h

Row | SMILES | activity at 31 ppm [1] | activity at 31 ppm [2] | activity at 31 ppm [3]
1 | CNC(=O)/C(=N/OC)c1cccc(C(F)(F)F)c1CO/N=C(\C)c1cc(-c2ccc(Cl)cc2)on1 [Example 17] | 1% | 0% | 14%
2 | CNC(=O)/C(=N/OC)c1cccc(C)c1CO/N=C(\C)c1cc(-c2ccc(Cl)cc2)sn1 [Example 8] | – | 6% | –
3 | CNC(=O)/C(=N/OC)c1cccc(C)c1CO/N=C(\C)c1cc(-c2ccccc2)sn1 [Example 38] | – | 6% | 16%
4 | CNC(=O)/C(=N/OC)c1cccc(C)c1CO/N=C(\C)c1cc(C)ccn1 [Example 26] | 7% | 0% | 12%
5 | CNC(=O)/C(=N/OC)c1cccc(C)c1CO/N=C(\C)c1cc(-c2ccc(Cl)cc2)on1 [Example 20] | – | 3% | 17%
6 | CNC(=O)/C(=N/OC)c1cccc(C)c1CO/N=C(\C)c1cc(OC)ccn1 [Example 56] | – | 0% | 11%
7 | CO/N=C(/C(=O)OC)c1cccc(C)c1CO/N=C(\C)c1ccc(Cl)nn1 [Example 91] | – | 0% | 16%
8 | CNC(=O)/C(=N/OC)c1cccc(C)c1CO/N=C(\C)c1nccc2ccccc12 [Example 45] | 6% | 0% | 4%
9 | CO/N=C(/C(=O)OC)c1cccc(C)c1CO/N=C(\C)c1cncn1C [Example 102] | – | 0% | –
10 | CO/N=C(/C(=O)OC)c1cccc(C)c1CO/N=C(\C)c1cc(-c2ccc(Cl)cc2)sn1 [Example 7] | – | – | 11%
11 | CO/N=C(/C(=O)OC)c1cccc(C)c1CO/N=C(\C)c1cc(-c2cccc(C(F)(F)F)c2)sn1 [Example 35] | – | – | 20%
12 | CO/N=C(/C(=O)OC)c1cccc(C)c1CO/N=C(\C)c1cn(C)nc1C(F)(F)F [Example 51] | 3% | – | 8%
13 | CO/N=C(/C(=O)OC)c1cccc(C)c1CO/N=C(\C)c1nccc2ccccc12 [Example 44] | 2% | 15% | –
14 | CNC(=O)/C(=N/OC)c1cccc(C)c1CO/N=C(\C)c1cnc(C)c(F)c1 [Example 101] | – | 0% | 15%
15 | CNC(=O)/C(=N/OC)c1cccc(C)c1CO/N=C(\C)c1cc(C(F)(F)F)nc(C)n1 [Example 58] | 21% | 11% | 17%
16 | CO/N=C(/C(=O)OC)c1cccc(C)c1CO/N=C(\C)c1ncsc1C(F)(F)F [Example 40] | 0% | 8% | –
17 | CO/N=C(/C(=O)OC)c1cccc(C)c1CO/N=C(\C)c1ccc(C#CC2CC2)nc1 [Example 68] | – | 3% | 13%
18 | CNC(=O)/C(=N/OC)c1cccc(C)c1CO/N=C(\C)c1cncc(/C(C)=N/OC)n1 [Example 83] | – | – | 21%
19 | CO/N=C(/C(=O)OC)c1cccc(C)c1CO/N=C(\C)c1cc(-c2cccc(C(F)(F)F)c2)on1 [Example 19] | – | – | 20%
20 | CO/N=C(/C(=O)OC)c1cccc(C)c1CO/N=C(\C)c1cnc(C)c(F)c1 [Example 100] | 19% | 0% | 12%
21 | CO/N=C(/C(=O)OC)c1cccc(C(F)(F)F)c1CO/N=C(\C)c1cc(-c2ccc(Cl)cc2)on1 [Example 16] | – | – | 19%
22 | CNC(=O)/C(=N/OC)c1cccc(C)c1CO/N=C(\C)c1cccc(OC)n1 [Example 3] | 4% | 0% | 6%
23 | CO/N=C(/C(=O)OC)c1cccc(C)c1CO/N=C(\C)c1nccc(C(F)(F)F)n1 [Example 71] | 0% | 0% | –
24 | CO/N=C(/C(=O)OC)c1cccc(C)c1CO/N=C(\C)c1cccc(C(F)(F)F)n1 [Example 1] | 10% | – | –
25 | CNC(=O)/C(=N/OC)c1cccc(C)c1CO/N=C(\C)c1cc2ccccc2cn1 [Example 67] | 5% | 0% | 9%
26 | CNC(=O)/C(=N/OC)c1cccc(C)c1CO/N=C(\C)c1nccc(C(F)(F)F)n1 [Example 73] | 21% | 1% | 13%

Reference: patent publication US20230357152A1 (priority 2020, published 2023)
